From patent publication US20240024488A1, “COMPOUNDS AND USES THEREOF” (Foghorn Therapeutics Inc., priority 2020, published 2024)

Legend:
[1] = target: T1, HiBit-BRG1 fusion protein (Homo sapiens, UniProt P51532); assay: HiBiT-BRG1 cell-based degradation assay (Nano-Glo HiBiT Lytic Detection, 24 h); conditions: HeLa cell line expressing HiBit-BRG1 and LgBit; for Dmax: read-out: BRG1 HiBit Degradation Maximum (%); for DC50: read-out: BRMG1 HiBit Degradation IC50
T1 construct: expressed in transfected cells
T1 sequence (P51532 whole entry, the tested form may be a part): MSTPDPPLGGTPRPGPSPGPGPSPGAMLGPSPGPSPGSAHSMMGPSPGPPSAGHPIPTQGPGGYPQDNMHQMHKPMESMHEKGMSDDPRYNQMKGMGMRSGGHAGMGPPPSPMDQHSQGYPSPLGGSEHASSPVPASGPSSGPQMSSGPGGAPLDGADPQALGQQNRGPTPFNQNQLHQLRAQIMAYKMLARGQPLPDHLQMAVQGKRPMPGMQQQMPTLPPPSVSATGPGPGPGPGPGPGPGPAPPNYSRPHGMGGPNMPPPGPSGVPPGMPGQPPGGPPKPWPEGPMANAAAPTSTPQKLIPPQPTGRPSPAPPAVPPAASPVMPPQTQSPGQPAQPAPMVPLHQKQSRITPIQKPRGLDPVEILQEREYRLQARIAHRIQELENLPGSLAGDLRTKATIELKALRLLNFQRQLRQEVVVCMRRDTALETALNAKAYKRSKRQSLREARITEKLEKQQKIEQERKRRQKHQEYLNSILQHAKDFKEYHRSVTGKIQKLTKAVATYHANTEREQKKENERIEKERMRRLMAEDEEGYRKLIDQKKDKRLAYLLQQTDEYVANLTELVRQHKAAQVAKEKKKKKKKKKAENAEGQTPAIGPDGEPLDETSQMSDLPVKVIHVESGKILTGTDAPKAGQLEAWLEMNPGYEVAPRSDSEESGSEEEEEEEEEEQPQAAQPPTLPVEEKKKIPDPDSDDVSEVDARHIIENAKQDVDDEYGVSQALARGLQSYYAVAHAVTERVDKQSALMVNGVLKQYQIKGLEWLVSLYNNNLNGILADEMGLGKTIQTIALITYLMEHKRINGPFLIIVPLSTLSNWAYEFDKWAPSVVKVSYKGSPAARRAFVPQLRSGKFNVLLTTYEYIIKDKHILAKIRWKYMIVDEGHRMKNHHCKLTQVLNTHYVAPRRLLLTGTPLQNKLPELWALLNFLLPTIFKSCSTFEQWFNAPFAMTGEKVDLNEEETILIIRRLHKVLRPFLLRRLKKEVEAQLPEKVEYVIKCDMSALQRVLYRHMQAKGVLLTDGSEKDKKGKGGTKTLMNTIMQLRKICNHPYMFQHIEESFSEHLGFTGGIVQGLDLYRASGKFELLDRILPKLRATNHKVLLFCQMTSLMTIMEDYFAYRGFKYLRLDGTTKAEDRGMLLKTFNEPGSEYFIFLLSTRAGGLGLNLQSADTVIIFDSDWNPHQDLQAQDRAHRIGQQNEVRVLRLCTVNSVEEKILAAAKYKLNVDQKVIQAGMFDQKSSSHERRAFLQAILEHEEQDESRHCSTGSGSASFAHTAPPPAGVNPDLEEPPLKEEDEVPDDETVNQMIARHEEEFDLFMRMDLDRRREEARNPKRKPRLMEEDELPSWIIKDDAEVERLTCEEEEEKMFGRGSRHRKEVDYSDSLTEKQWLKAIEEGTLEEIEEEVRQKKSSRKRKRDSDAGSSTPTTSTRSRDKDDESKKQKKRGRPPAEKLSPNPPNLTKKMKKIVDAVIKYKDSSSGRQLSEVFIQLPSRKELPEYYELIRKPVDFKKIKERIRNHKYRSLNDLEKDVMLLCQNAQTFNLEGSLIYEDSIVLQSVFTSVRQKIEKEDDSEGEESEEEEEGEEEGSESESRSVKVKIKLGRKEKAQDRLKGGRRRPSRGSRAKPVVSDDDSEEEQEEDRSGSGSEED
Experimental: Procedure: A stable HeLa cell line expressing HiBiT-BRM was generated. On day 0, 5000 cells were seeded in 40 μL of media into each well of 384-well cell culture plates. […] Subsequently plates were incubated for 24 h in a standard tissue culture incubator and equilibrated at room temperature for 15 minutes. Nano-Glo HiBiT Lytic Detection System (Promega N3050) reagent was freshly prepared and 20 ul was added to each well. Upon addition of this LgBit-containing reagent, the HiBiT and LgBiT proteins associate to form the luminescent NanoBiT luciferase. The plates were shaken for 10 minutes at room temperature and the bioluminescence read using an EnVision plate reader (PerkinElmer).
For measurement of BRG1 degradation, a stable HeLa cell line expressing HiBit-BRG1 and LgBit was generated. The same protocol as above was then followed.
(§1) The degradation % was calculated using the following formula: % degradation=100%−100%×(LumSample−LumLC)/(LumHC−LumLC). DMSO treated cells are employed as High Control (HC) and 2 μM of a known BRM/BRG1 degrader standard treated cells are employed as Low Control (LC).

HiBit-BRM fusion protein = target: T2, HiBit-BRM fusion protein (Homo sapiens, UniProt P51531); assay: HiBiT-BRM cell-based degradation assay (Nano-Glo HiBiT Lytic Detection, 24 h); conditions: HeLa cell line expressing HiBiT-BRM; for DC50: read-out: BRM HiBit Degradation IC50
T2 construct: expressed in transfected cells
T2 sequence (P51531 whole entry, the tested form may be a part): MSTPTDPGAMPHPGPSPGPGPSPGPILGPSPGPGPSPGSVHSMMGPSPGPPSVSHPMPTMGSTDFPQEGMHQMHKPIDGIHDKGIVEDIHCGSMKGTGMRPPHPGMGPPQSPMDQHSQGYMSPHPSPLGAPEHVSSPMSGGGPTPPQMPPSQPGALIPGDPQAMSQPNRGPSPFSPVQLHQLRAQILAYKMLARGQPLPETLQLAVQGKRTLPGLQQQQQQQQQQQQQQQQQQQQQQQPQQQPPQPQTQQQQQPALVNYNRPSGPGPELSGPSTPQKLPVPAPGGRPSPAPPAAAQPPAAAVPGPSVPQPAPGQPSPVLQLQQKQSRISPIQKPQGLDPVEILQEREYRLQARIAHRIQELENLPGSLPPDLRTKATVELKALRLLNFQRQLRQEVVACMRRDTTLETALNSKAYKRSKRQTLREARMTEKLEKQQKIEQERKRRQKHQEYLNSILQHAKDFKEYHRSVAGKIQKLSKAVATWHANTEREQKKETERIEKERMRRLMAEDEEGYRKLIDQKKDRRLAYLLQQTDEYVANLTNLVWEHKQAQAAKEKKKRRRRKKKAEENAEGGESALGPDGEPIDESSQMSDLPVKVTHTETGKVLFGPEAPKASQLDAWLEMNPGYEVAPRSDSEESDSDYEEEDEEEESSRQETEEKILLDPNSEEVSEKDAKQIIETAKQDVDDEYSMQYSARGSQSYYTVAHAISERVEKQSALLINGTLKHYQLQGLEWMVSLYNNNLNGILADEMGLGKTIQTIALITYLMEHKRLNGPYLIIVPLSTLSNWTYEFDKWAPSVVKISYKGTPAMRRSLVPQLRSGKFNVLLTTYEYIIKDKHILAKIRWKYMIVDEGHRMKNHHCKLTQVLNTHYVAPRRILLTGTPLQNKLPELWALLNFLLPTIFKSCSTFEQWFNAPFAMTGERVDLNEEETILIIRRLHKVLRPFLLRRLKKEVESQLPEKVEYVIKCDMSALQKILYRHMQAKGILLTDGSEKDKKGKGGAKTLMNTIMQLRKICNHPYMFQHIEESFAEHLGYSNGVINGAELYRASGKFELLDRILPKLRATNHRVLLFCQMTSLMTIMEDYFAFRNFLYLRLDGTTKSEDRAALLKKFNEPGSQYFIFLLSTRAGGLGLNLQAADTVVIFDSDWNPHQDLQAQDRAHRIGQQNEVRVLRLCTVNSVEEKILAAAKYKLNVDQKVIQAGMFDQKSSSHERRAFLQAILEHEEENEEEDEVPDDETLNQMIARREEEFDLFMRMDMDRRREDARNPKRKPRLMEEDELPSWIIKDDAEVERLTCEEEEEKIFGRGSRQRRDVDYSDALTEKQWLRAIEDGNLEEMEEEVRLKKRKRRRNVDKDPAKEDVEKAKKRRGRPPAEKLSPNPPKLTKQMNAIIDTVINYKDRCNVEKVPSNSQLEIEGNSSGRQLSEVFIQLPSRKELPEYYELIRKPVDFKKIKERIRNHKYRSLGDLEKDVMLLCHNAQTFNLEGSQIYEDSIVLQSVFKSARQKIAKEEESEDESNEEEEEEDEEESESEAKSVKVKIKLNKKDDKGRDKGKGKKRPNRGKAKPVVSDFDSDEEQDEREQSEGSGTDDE
Experimental: Procedure: A stable HeLa cell line expressing HiBiT-BRM was generated. On day 0, 5000 cells were seeded in 40 μL of media into each well of 384-well cell culture plates. On day 1, cells were treated with 120 nL DMSO or 120 nL of 3-fold serially DMSO-diluted compounds (10 points in duplicate with 30 μM as final top dose). Subsequently plates were incubated for 24 h in a standard tissue culture incubator and equilibrated at room temperature for 15 minutes. Nano-Glo HiBiT Lytic Detection System (Promega N3050) reagent was freshly prepared and 20 ul was added to each well. Upon addition of this LgBit-containing reagent, the HiBiT and LgBiT proteins associate to form the luminescent NanoBiT luciferase. The plates were shaken for 10 minutes at room temperature and the bioluminescence read using an EnVision plate reader (PerkinElmer).
as §1

| Structure (SMILES) | Dmax [1] [%] | BRM HiBit Degradation Maximum (%) (HiBit-BRM fusion protein) | DC50 (HiBit-BRM fusion protein) [nM] | DC50 [1] [nM] |
| --- | --- | --- | --- | --- |
| Cc1ncsc1-c1ccc(CNC(=O)[C@@H]2C[C@@H](O)CN2C(=O)[C@@H](NC(=O)CCCCCNCCC(=O)N2CC(c3cc4cc(-c5ccccc5O)nnc4[nH]3)C2)C(C)(C)C)cc1 (racemic) [Compound 55, (2S,4R)-4-hydroxy-1-((S)-2-(6-((3-(3-(3-(2-hydroxyphenyl)-7H-pyrrolo[2,3-c]pyridazin-6-yl)azetidin-1-yl)-3-oxopropyl)amino)hexanamido)-3,3-dimethylbutanoyl)-N-(4-(4-methylthiazol-5-yl)benzyl)pyrrolidine-2-carboxamide] | < 50 | C (“C” indicates maximum degradation < 50%) | – | – |
| Cc1ncsc1-c1ccc(CNC(=O)[C@@H]2C[C@@H](O)CN2C(=O)[C@@H](NC(=O)CCCCCCCNCCC(=O)N2CC(c3c[nH]c4nnc(-c5ccccc5O)cc34)C2)C(C)(C)C)cc1 (racemic) [Compound 56, (2S,4R)-4-hydroxy-1-((S)-2-(8-((3-(3-(3-(2-hydroxyphenyl)-7H-pyrrolo[2,3-c]pyridazin-5-yl)azetidin-1-yl)-3-oxopropyl)amino)octanamido)-3,3-dimethylbutanoyl)-N-(4-(4-methylthiazol-5-yl)benzyl)pyrrolidine-2-carboxamide] | < 50 | B (“B” indicates maximum degradation ≥ 50%) | > 1000 | – |
| Cc1ncsc1-c1ccc(CNC(=O)[C@@H]2C[C@@H](O)CN2C(=O)[C@@H](NC(=O)CCCCCNCCC(=O)N2CC(c3c[nH]c4nnc(-c5ccccc5O)cc34)C2)C(C)(C)C)cc1 (racemic) [Compound 57, (2S,4R)-4-hydroxy-1-((S)-2-(6-((3-(3-(3-(2-hydroxyphenyl)-7H-pyrrolo[2,3-c]pyridazin-5-yl)azetidin-1-yl)-3-oxopropyl)amino)hexanamido)-3,3-dimethylbutanoyl)-N-(4-(4-methylthiazol-5-yl)benzyl)pyrrolidine-2-carboxamide] | < 50 | C (“C” indicates maximum degradation < 50%) | – | – |
| Cc1ncsc1-c1ccc([C@H](C)NC(=O)[C@@H]2C[C@@H](O)CN2C(=O)[C@@H](c2cc(OCCN3CCN(CCN4CC(c5cc6cc(-c7ccccc7O)nnc6[nH]5)C4)CC3)no2)C(C)C)cc1 (racemic) [Compound 58, (2S,4R)-4-hydroxy-1-((R)-2-(3-(2-(4-(2-(3-(3-(2-hydroxyphenyl)-7H-pyrrolo[2,3-c]pyridazin-6-yl)azetidin-1-yl)ethyl)piperazin-1-yl)ethoxy)isoxazol-5-yl)-3-methylbutanoyl)-N-((S)-1-(4-(4-methylthiazol-5-yl)phenyl)ethyl)pyrrolidine-2-carboxamide] | > 75 | A (“A” indicates maximum degradation ≥ 75%) | > 100 | > 100 |
| Cc1ncsc1-c1ccc([C@H](C)NC(=O)[C@@H]2C[C@@H](O)CN2C(=O)[C@@H](c2cc(OCCN(C)CCN3CC(c4cc5cc(-c6ccccc6O)nnc5[nH]4)C3)no2)C(C)C)cc1 (racemic) [Compound 59, (2S,4R)-4-hydroxy-1-((R)-2-(3-(2-((2-(3-(3-(2-hydroxyphenyl)-7H-pyrrolo[2,3-c]pyridazin-6-yl)azetidin-1-yl)ethyl)(methyl)amino)ethoxy)isoxazol-5-yl)-3-methylbutanoyl)-N-((S)-1-(4-(4-methylthiazol-5-yl)phenyl)ethyl)pyrrolidine-2-carboxamide] | < 50 | B (“B” indicates maximum degradation ≥ 50%) | > 100 | – |
| Cc1ncsc1-c1ccc(CNC(=O)[C@@H]2C[C@@H](O)CN2C(=O)[C@@H](NC(=O)CCCN2CC(c3cc4cc(-c5ccccc5O)nnc4[nH]3)C2)C(C)(C)C)cc1 (racemic) [Compound 60, (2S,4R)-4-hydroxy-1-((S)-2-(4-(3-(3-(2-hydroxyphenyl)-7H-pyrrolo[2,3-c]pyridazin-6-yl)azetidin-1-yl)butanamido)-3,3-dimethylbutanoyl)-N-(4-(4-methylthiazol-5-yl)benzyl)pyrrolidine-2-carboxamide] | < 50 | C (“C” indicates maximum degradation < 50%) | – | – |
| Cc1ncsc1-c1ccc(CNC(=O)[C@@H]2C[C@@H](O)CN2C(=O)[C@@H](NC(=O)CN2CC(c3cc4cc(-c5ccccc5O)nnc4[nH]3)C2)C(C)(C)C)cc1 (racemic) [Compound 61, (2S,4R)-4-hydroxy-1-((S)-2-(2-(3-(3-(2-hydroxyphenyl)-7H-pyrrolo[2,3-c]pyridazin-6-yl)azetidin-1-yl)acetamido)-3,3-dimethylbutanoyl)-N-(4-(4-methylthiazol-5-yl)benzyl)pyrrolidine-2-carboxamide] | > 75 | A (“A” indicates maximum degradation ≥ 75%) | > 1000 | > 1000 |
| Cc1ncsc1-c1ccc(CNC(=O)[C@@H]2C[C@@H](O)CN2C(=O)[C@@H](NC(=O)C2(F)CC2)C(C)(C)C)c(OCCN2CC(c3cc4cc(-c5ccccc5O)nnc4[nH]3)C2)c1 (racemic) [Compound 63, (2S,4R)-1-((S)-2-(1-fluorocyclopropane-1-carboxamido)-3,3-dimethylbutanoyl)-4-hydroxy-N-(2-(2-(3-(3-(2-hydroxyphenyl)-7H-pyrrolo[2,3-c]pyridazin-6-yl)azetidin-1-yl)ethoxy)-4-(4-methylthiazol-5-yl)benzyl)pyrrolidine-2-carboxamide] | < 50 | C (“C” indicates maximum degradation < 50%) | – | – |
| Cc1ncsc1-c1ccc([C@H](C)NC(=O)[C@@H]2C[C@@H](O)CN2C(=O)[C@@H](c2cc(OCCN(C)CCC(=O)N3CC(c4cc5cc(-c6ccccc6O)nnc5[nH]4)C3)no2)C(C)C)cc1 (racemic) [Compound 64, (2S,4R)-4-hydroxy-1-((R)-2-(3-(2-((3-(3-(3-(2-hydroxyphenyl)-7H-pyrrolo[2,3-c]pyridazin-6-yl)azetidin-1-yl)-3-oxopropyl)(methyl)amino)ethoxy)isoxazol-5-yl)-3-methylbutanoyl)-N-((S)-1-(4-(4-methylthiazol-5-yl)phenyl)ethyl)pyrrolidine-2-carboxamide] | < 50 | B (“B” indicates maximum degradation ≥ 50%) | > 100 | – |
| Cc1ncsc1-c1ccc([C@H](C)NC(=O)[C@@H]2C[C@@H](O)CN2C(=O)[C@@H](c2cc(OCCNCCC(=O)N3CC(c4cc5cc(-c6ccccc6O)nnc5[nH]4)C3)no2)C(C)C)cc1 (racemic) [Compound 65, (2S,4R)-4-hydroxy-1-((R)-2-(3-(2-((3-(3-(3-(2-hydroxyphenyl)-7H-pyrrolo[2,3-c]pyridazin-6-yl)azetidin-1-yl)-3-oxopropyl)amino)ethoxy)isoxazol-5-yl)-3-methylbutanoyl)-N-((S)-1-(4-(4-methylthiazol-5-yl)phenyl)ethyl)pyrrolidine-2-carboxamide] | < 50 | B (“B” indicates maximum degradation ≥ 50%) | > 1000 | – |
| Cc1ncsc1-c1ccc(CNC(=O)[C@@H]2C[C@@H](O)CN2C(=O)[C@@H](NC(=O)CCCCCCCNCCC(=O)N2CC(c3cc4cc(-c5ccccc5O)nnc4[nH]3)C2)C(C)(C)C)cc1 (racemic) [Compound 66, (2S,4R)-4-hydroxy-1-((S)-2-(8-((3-(3-(3-(2-hydroxyphenyl)-7H-pyrrolo[2,3-c]pyridazin-6-yl)azetidin-1-yl)-3-oxopropyl)amino)octanamido)-3,3-dimethylbutanoyl)-N-(4-(4-methylthiazol-5-yl)benzyl)pyrrolidine-2-carboxamide] | < 50 | C (“C” indicates maximum degradation < 50%) | – | – |
| Cc1ncsc1-c1ccc([C@H](C)NC(=O)[C@@H]2C[C@@H](O)CN2C(=O)[C@@H](c2cc([C@H]3CC[C@H](c4cnc(N5CCC(c6c[nH]c7nnc(-c8ccccc8O)cc67)CC5)nc4)CC3)no2)C(C)C)cc1 (racemic) [Compound 67, (2S,4R)-4-hydroxy-N-[(1S)-1-[4-(4-methyl-1,3-thiazol-5-yl)phenyl]ethyl]-1-[(2R)-3-methyl-2-{3-[(1r,4r)-4-(2-{4-[3-(2-hydroxyphenyl)-7H-pyrrolo[2,3-c]pyridazin-5-yl]piperidin-1-yl}pyrimidin-5-yl)cyclohexyl]-1,2-oxazol-5-yl}butanoyl]pyrrolidine-2-carboxamide] | > 75 | A (“A” indicates maximum degradation ≥ 75%) | < 10 | > 10 |
